Patent US20050143450A1, “Alkyl PCDF as a treatment for prostate cancer” (priority 2002, published 2005)

How the values were obtained:
22Rv1 cells = test: Growth inhibition of 22Rv1 prostate cancer cells; format: cell-based
Protocol: 22Rv1 cells were treated with various concentrations of TCDD.
In a second study, 22Rv1 cells were maintained in 10% serum, and various concentrations of 6-MCDF were added to the cells.

LNCaP cells = format: cell-based, human; settings: six days; for growth of LNCaP cells in the presence of DHT: 10 nM DHT; for proliferation of LNCaP cells: absence of DHT, TCDD 1-100 nM
Protocol: After trypsinization and low-speed centrifugation, LNCaP cells were resuspended and counted using a Coulter cell counter (Beckman Coulter, Fullerton, Calif.). Cells were seeded at a density of 5×10^4/35-mm well using DME-F12 without phenol red, supplemented with 2.5% charcoal-stripped fetal bovine serum (FBS). Twenty-four hours after seeding, initial treatment was applied and then subsequently reapplied with fresh medium every two days until harvesting by trypsinization. Cells were counted after harvesting using a Coulter counter.

AR = molecular target: T1, AR (Homo sapiens, UniProt P10275, T878A); format: cell-based; settings: LNCaP, pPB; for effect on E2-induced luciferase activity: cotreatment with 10 nM E2
T1 construct: AR protein levels in whole cell lysates were determined by Western blot analysis; endogenous in cells; host or cells: LNCaP
T1 sequence (P10275 1-920 T878A): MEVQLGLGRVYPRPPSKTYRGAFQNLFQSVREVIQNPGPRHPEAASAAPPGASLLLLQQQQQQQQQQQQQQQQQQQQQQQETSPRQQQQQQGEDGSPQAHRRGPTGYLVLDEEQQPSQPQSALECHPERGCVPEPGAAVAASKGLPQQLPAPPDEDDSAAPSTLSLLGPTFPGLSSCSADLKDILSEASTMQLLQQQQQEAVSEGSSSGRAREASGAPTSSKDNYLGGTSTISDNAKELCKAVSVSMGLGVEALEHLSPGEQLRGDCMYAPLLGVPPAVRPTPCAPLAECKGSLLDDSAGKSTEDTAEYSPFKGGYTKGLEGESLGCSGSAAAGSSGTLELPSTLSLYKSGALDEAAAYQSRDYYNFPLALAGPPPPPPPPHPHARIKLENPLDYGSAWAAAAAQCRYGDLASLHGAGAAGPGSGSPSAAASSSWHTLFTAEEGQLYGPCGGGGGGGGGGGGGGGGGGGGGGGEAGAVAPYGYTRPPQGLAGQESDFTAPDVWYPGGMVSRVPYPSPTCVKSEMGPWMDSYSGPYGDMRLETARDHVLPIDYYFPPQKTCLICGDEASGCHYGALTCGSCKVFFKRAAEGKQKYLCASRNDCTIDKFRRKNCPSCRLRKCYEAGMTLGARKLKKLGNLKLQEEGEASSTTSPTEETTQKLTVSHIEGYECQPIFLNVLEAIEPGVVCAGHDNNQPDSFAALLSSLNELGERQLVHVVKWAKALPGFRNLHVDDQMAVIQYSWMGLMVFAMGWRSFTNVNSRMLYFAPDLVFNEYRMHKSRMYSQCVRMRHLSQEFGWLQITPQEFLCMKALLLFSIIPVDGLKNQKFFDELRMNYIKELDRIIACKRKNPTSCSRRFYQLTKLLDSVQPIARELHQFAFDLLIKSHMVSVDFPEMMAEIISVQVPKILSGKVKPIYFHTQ
Protocol: (§1) After 24 h, cells were transfected using Lipofectamine and Plus reagents (Invitrogen) according to manufacturer's instructions. LNCaP and ZR-75 cells were transfected with 500 ng/well of either reporter plasmid, and 250 ng/well of pcDNA3.1-β-gal (Invitrogen) as the internal control. In addition, ZR-75 cells were transfected with 500 ng hAR. Twenty-four hours after treatment, cells were harvested by scraping with 200 μL/well of reporter lysis buffer. Lysates were centrifuged at 40,000 g and luciferase and β-galactosidase activity was assayed with 30 μL of the supernatant extract per sample using a Lumicount luminometer (PerkinElmer, Boston, Mass.). Luciferase activity was normalized to β-galactosidase activity for each transfection well.
The transfected cells were then treated with hormone or AhR agonist alone or in combination and luciferase activity was determined as described in the above examples.

[1] = test system: androgen-responsive probasin gene promoter (pPB); format: cell-based, human; settings: ZR-75 cells, pPB alone
Protocol: as §1, with “ZR-75 human breast cancer and LNCaP human prostate cancer cells were obtained from American Type Culture Collection (Manassas, Va.) and were maintained in RPMI 1640 medium supplemented with 10% FBS, 1% antibiotic/antimycotic solution, 1.5 g/L sodium bicarbonate, and 10 mM HEPES, final pH of 7.4. Cells were seeded at 2.75×10^5 per 22-mm well in DME-F12 without phenol red, supplemented with 2.5% charcoal-stripped fetal bovine serum (FBS). After” for “After”

[2] = test system: ethoxyresorufin O-deethylase (EROD) activity in 22Rv1 cells; test: Induction of EROD activity in 22Rv1 cells; format: cell-based; settings: 24-hr treatment
Protocol: (§2) An androgen responsive prostate cancer cell line 22Rv1 and an androgen nonresponsive prostate cancer cell line PC3 were treated with TCDD and ethoxyresorufin O-deethylase (EROD) activity was measured.

[3] = test system: ethoxyresorufin O-deethylase (EROD) activity in PC3 cells; test: Induction of EROD activity in PC3 cells; format: cell-based; settings: 24-96 hr
Protocol: as §2

## Cc1cc(Cl)cc2c1oc1cc(Cl)cc(Cl)c12 [6-MCDF, 6-methyl-1,3,8-trichlorodibenzofuran]
22Rv1 cells; cells maintained in 10% serum, various concentrations
  22Rv1 cell proliferation: concentration-dependent decrease
LNCaP cells
  growth of LNCaP cells in the presence of DHT: inhibited growth
  proliferation of LNCaP cells: growth inhibition was also observed
AR; HPTE 10 μM
  effect on E2-induced luciferase activity: significantly decreased
AR; MCDF 2 μM
  induction of luciferase activity by AhR agonist alone: did not significantly induce activity
[1]
  reporter gene activity: did not activate

## Clc1cc2c(cc1Cl)Oc1cc(Cl)c(Cl)cc1O2 [TCDD, 2,3,7,8-tetrachloro-p-dioxin]
[2]
  EROD activity induction: induced EROD activity
[3]; 1 nM
  EROD activity induction: did not induce activity
[3]; 10 nM, maximal after 96 hr
  EROD activity induction: induced a response
22Rv1 cells; 1 nM
  testosterone-induced growth of 22Rv1 cells: inhibited
22Rv1 cells; 1 nM alone
  constitutive growth of 22Rv1 cells: inhibited
LNCaP cells
  growth of LNCaP cells in the presence of DHT: inhibited growth
  proliferation of LNCaP cells: significantly inhibited
AR; cotreatment with 10 nM DHT, MCDF 2 μM, HPTE 10 μM
  effect on DHT-induced luciferase activity: significantly inhibited
AR; HPTE 10 μM
  effect on E2-induced luciferase activity: significantly decreased
AR; MCDF 2 μM
  induction of luciferase activity by AhR agonist alone: did not significantly induce activity
[1]
  reporter gene activity: did not activate
